In patent US4973675A, “Hybrid nitrosoureidoanthracyclines having antitumor activity” (University of Tennessee Research Center, priority 1989, dated 1990):
pIC50: −log10 of the molar value. Where two headings read alike, the source gives them in different places.

Tests used:
[1] = test system: human CEM leukemic lymphocytes; experiment: Growth inhibition of human CEM leukemic lymphocyte suspension cultures, 48 h continuous drug exposure (ID50); assay type: cell-based; conditions: Homo sapiens, Lymphocyte
Description: (§1) Culture and bioassay conditions were as described in Cancer Chemotherapy Pharmacology 20:277 (1987) "Comparative Effects of Adriamycin and DNA-nonbinding Analogues on DNA, RNA, and Protein Synthesis in Vitro", Israel et al., except that cell counts were determined by hemocytometer rather than by automated cell counting.

[2] = test system: plasmid PC15 supercoiled DNA; experiment: DNA unwinding assay (interference with DNA topoisomerase I-mediated unwinding; drug-DNA intercalation); assay type: biochemical; conditions: for interference with topoisomerase I-mediated conversion of supercoiled DNA / intercalation: 4 concentrations, 125-fold range
Text: DNA unwinding assays were used to measure the ability of a test drug to interfere with DNA topoisomerase I-mediated unwinding of plasmid PC15 supercoiled DNA. DNA topoisomerase I controls the topology of double-stranded DNA and is itself not inhibited by DNA intercalating agents. Rather, intercalating agents cause distortion of the torsional angle between adjacent DNA strand components and thereby interfere with the ability of topoisomerase I to convert supercoiled DNA into relaxed forms. Accordingly, this assay is taken as the definitive test of drug-DNA intercalation.
Drugs were tested at 4 concentrations over a 125-fold concentration range. […] These compounds are 2-chloroethylurea derivatives of daunorubicin and adriamycin, respectively (i.e. not nitrosoureas, but chemical intermediates from which the nitrosoureas were derived).

DNA topoisomerase II = experiment: Drug-stimulated topoisomerase II-mediated DNA cleavage assay (end-labeled PMC41 DNA); assay type: biochemical; conditions: 625-fold concentration range
Text: FIGS. 5A and 5B are a photographic reproduction of the results of drug-stimulated topoisomerase II-mediated DNA cleavage assays performed on various compounds, including compounds of the present invention.
DNA intercalation is a necessary but not a sufficient requirement for DNA topoisomerase II-mediated DNA cleavage. Accordingly, determination of drug-induced enzyme inhibition requires direct assay with isolated topoisomerase II. These assays involve determination of drug-enhanced topoisomerase II-mediated cleavage of PMC41 DNA appropriately end-labeled with [α-^32 P]dATP. As better seen in FIG. 5B, lane B, purified topoisomerase II, under the assay conditions, causes fragmentation of the DNA (background cleavage), as indicated by the radioautographic appearance of bands of cleaved DNA having differing mass values.

[3] = test system: murine L1210 leukemia cells; experiment: Clonogenic assay with cultured murine L1210 leukemia cells, 1 h drug exposure (LD90); assay type: cell-based; conditions: Mus musculus, L1210; 1 hr drug exposure; read-out: L1210 LD90 (dose killing 90% of clonogens)
Description: as §1
+Dose killing 90% of clonogens, 1hr. drug exposure.

[4] = Solubility in water or saline; assay type: physicochemical
Description: Accordingly, the compounds are formulated for administration by dissolving the compound in a pharmaceutically acceptable non-toxic carrier which contains a surfactant. The present inventors employ a formulation of 10% Cremaphor EL (a polyhydroxylated castor oil derivative) available from BASF Chemicals, 10% ethanol and 80% aqueous media (sterile water or saline solution). That quantity of the compound desired for establishing an effective dose is dissolved in a 1:1 mixture of Cremaphor EL and ethanol. Thereafter, sufficient aqueous medium is added with stirring to develop a final formulation containing 80% aqueous medium. This formulation is administered parenterally.

calf thymus DNA = experiment: Interstrand cross-link formation in isolated calf thymus DNA, ethidium bromide fluorescence assay; assay type: biochemical; conditions: 10 mM, 4 hours at 50° C.
Description: To further assess the alkylation potential of AD 312, the ability of this agent to form interstrand cross-links in isolated calf thymus DNA was examined using an ethidium bromide fluorescence assay. […] In one set of experiments, DNA was exposed briefly to AD 312 (30 minutes at 50° C.) before being reisolated by precipitation with ethanol. […] Such continuing reaction reflects the presence in the DNA of long-lived precursors of crosslinks similar to what has been found for the classical antitumor chloroethylnitrosoureas. […] It appears, therefore, that AD 312 induces DNA interstrand crosslinks via an initial adduct at O^6 -guanine.

[5] = CEM, 48 hr continuous drug exposure (Table 2), read-out: ID50 (the source's name)

| SMILES | pIC50 [1, 5] | further results |
| --- | --- | --- |
| CCNC(=O)N[C@H]1C[C@H](O[C@H]2C[C@](O)(C(=O)CO)Cc3c(O)c4c(c(O)c32)C(=O)c2c(OC)cccc2C4=O)O[C@@H](C)[C@H]1O [AD 344] | – | pIC50 ([1]; 48 h, read-out: ID50): 6.24 |
| CCCN(N=O)C(=O)N[C@H]1C[C@H](O[C@H]2C[C@](O)(C(=O)CO)Cc3c(O)c4c(c(O)c32)C(=O)c2c(OC)cccc2C4=O)O[C@@H](C)[C@H]1O [AD 349] | 6.37 | – |
| CCNC(=O)N[C@H]1C[C@H](O[C@H]2C[C@](O)(C(C)=O)Cc3c(O)c4c(c(O)c32)C(=O)c2c(OC)cccc2C4=O)O[C@@H](C)[C@H]1O [AD 306] | < 6.00 | – |
| COc1cccc2c1C(=O)c1c(O)c3c(c(O)c1C2=O)C[C@@](O)(C(C)=O)C[C@@H]3O[C@H]1C[C@H](NC(=O)Nc2ccc(F)cc2)[C@H](O)[C@H](C)O1 [AD 332] | – | pIC50 ([1]; 48 h, read-out: ID50): < 6.00 |
| COc1cccc2c1C(=O)c1c(O)c3c(c(O)c1C2=O)C[C@@](O)(C(=O)CO)C[C@@H]3O[C@H]1C[C@H](NC(=O)NCCCl)[C@H](O)[C@H](C)O1 [AD 346, 2-chloroethylureidoadriamycin] | 7.05 | interference with topoisomerase I-mediated conversion of supercoiled DNA / intercalation [2]: reasonably strong intercalators; enhancement of topoisomerase II-mediated DNA cleavage (DNA topoisomerase II): do not enhance topoisomerase II-mediated cleavage |
| CNC(=O)N[C@H]1C[C@H](O[C@H]2C[C@](O)(C(C)=O)Cc3c(O)c4c(c(O)c32)C(=O)c2c(OC)cccc2C4=O)O[C@@H](C)[C@H]1O [AD 305] | 5.64 | – |
| COc1cccc2c1C(=O)c1c(O)c3c(c(O)c1C2=O)C[C@@](O)(C(=O)CO)C[C@@H]3O[C@H]1C[C@H](NC(=O)NCCCl)[C@@H](O)[C@H](C)O1 [AD 391, 2-chloroethylureidoepirubicin] | 7.10 | interference with topoisomerase I-mediated conversion of supercoiled DNA / intercalation [2]: strong intercalators; enhancement of topoisomerase II-mediated DNA cleavage (DNA topoisomerase II): do not enhance topoisomerase II-mediated cleavage |
| COc1cccc2c1C(=O)c1c(O)c3c(c(O)c1C2=O)C[C@@](O)(C(C)=O)C[C@@H]3O[C@H]1C[C@H](NC(=O)Nc2cccc(C(F)(F)F)c2)[C@H](O)[C@H](C)O1 [AD 334] | 6.08 | – |
| COc1cccc2c1C(=O)c1c(O)c3c(c(O)c1C2=O)C[C@@](O)(C(C)=O)C[C@@H]3O[C@H]1C[C@@H]2NC(=O)O[C@@H]2[C@H](C)O1 [AD 362] | 6.06 | – |
| COc1ccc(NC(=O)N[C@H]2C[C@H](O[C@H]3C[C@](O)(C(=O)CO)Cc4c(O)c5c(c(O)c43)C(=O)c3c(OC)cccc3C5=O)O[C@@H](C)[C@H]2O)cc1 [AD 354] | 6.15 | – |
| CCN(N=O)C(=O)N[C@H]1C[C@H](O[C@H]2C[C@](O)(C(C)=O)Cc3c(O)c4c(c(O)c32)C(=O)c2c(OC)cccc2C4=O)O[C@@H](C)[C@H]1O [AD 311] | – | pIC50 ([1]; 48 h, read-out: ID50): 5.82 |
| CCCNC(=O)N[C@H]1C[C@H](O[C@H]2C[C@](O)(C(C)=O)Cc3c(O)c4c(c(O)c32)C(=O)c2c(OC)cccc2C4=O)O[C@@H](C)[C@H]1O [AD 308] | < 5.30 | – |
| CCOC(=O)NC(=S)N[C@H]1C[C@H](O[C@H]2C[C@](O)(C(=O)CO)Cc3c(O)c4c(c(O)c32)C(=O)c2c(OC)cccc2C4=O)O[C@@H](C)[C@H]1O [AD 360] | 6.44 | – |
| COc1cccc2c1C(=O)c1c(O)c3c(c(O)c1C2=O)C[C@@](O)(C(=O)CO)C[C@@H]3O[C@H]1C[C@H](N)[C@@H](O)[C@H](C)O1 [Epirubicin, epirubicin, reference compound] | – | pIC50 ([1]; suspension culture, 48 hr continuous drug exposure (Table 3), read-out: CEM, ID50 (50% growth-inhibitory concentration)): 7.52; IC90 [3]: 430 nM; relative strength of drug-DNA intercalation (arbitrary scale) ([2]; 0 = no intercalation, 9 = very strong intercalation): 7 |
| CCCNC(=O)N[C@H]1C[C@H](O[C@H]2C[C@](O)(C(=O)CO)Cc3c(O)c4c(c(O)c32)C(=O)c2c(OC)cccc2C4=O)O[C@@H](C)[C@H]1O [AD 348] | 6.11 | – |
| COc1cccc2c1C(=O)c1c(O)c3c(c(O)c1C2=O)C[C@@](O)(C(C)=O)C[C@@H]3O[C@H]1C[C@H](NC(=O)NC(C)C)[C@H](O)[C@H](C)O1 [AD 328] | < 6.00 | – |
| COc1cccc2c1C(=O)c1c(O)c3c(c(O)c1C2=O)C[C@@](O)(C(=O)CO)C[C@@H]3O[C@H]1C[C@@H]2NC(=O)O[C@@H]2[C@H](C)O1 [AD 363] | 6.15 | – |
| COc1cccc2c1C(=O)c1c(O)c3c(c(O)c1C2=O)C[C@@](O)(C(=O)CO)C[C@@H]3O[C@H]1C[C@H](NC(=O)N(C)N=O)[C@H](O)[C@H](C)O1 [AD 343] | – | pIC50 ([1]; 48 h, read-out: ID50): 6.32 |
| CCOC(=O)NC(=S)N[C@H]1C[C@H](O[C@H]2C[C@](O)(C(C)=O)Cc3c(O)c4c(c(O)c32)C(=O)c2c(OC)cccc2C4=O)O[C@@H](C)[C@H]1O [AD 336] | 6.22 | – |
| COc1cccc2c1C(=O)c1c(O)c3c(c(O)c1C2=O)C[C@@](O)(C(=O)CO)C[C@@H]3O[C@H]1C[C@H](NC(=O)Nc2ccccc2)[C@H](O)[C@H](C)O1 [AD 352] | 6.40 | – |
| COc1cccc2c1C(=O)c1c(O)c3c(c(O)c1C2=O)C[C@@](O)(C(=O)CO)C[C@@H]3O[C@H]1C[C@H](NC(=O)N(CCCl)N=O)[C@H](O)[C@H](C)O1 [AD 337] | – | solubility ([4]; water or saline solution): essentially insoluble in water or saline solution; solubility ([4]; water, of the order of, read-out: solubility in water): < 25 µg/mL |
| CNC(=O)N[C@H]1C[C@H](O[C@H]2C[C@](O)(C(=O)CO)Cc3c(O)c4c(c(O)c32)C(=O)c2c(OC)cccc2C4=O)O[C@@H](C)[C@H]1O [AD 342] | 5.70 | – |
| COc1cccc2c1C(=O)c1c(O)c3c(c(O)c1C2=O)C[C@@](O)(C(C)=O)C[C@@H]3O[C@H]1C[C@H](NC(=O)Nc2ccccc2)[C@H](O)[C@H](C)O1 [AD 309] | < 6.00 | – |
| CCCN(N=O)C(=O)N[C@H]1C[C@H](O[C@H]2C[C@](O)(C(C)=O)Cc3c(O)c4c(c(O)c32)C(=O)c2c(OC)cccc2C4=O)O[C@@H](C)[C@H]1O [AD 313] | < 6.00 | – |
| COc1cccc2c1C(=O)c1c(O)c3c(c(O)c1C2=O)C[C@@](O)(C(C)=O)C[C@@H]3O[C@H]1C[C@H](NC(=O)N(C)N=O)[C@H](O)[C@H](C)O1 [AD 310] | 5.85 | – |
| CCN(N=O)C(=O)N[C@H]1C[C@H](O[C@H]2C[C@](O)(C(=O)CO)Cc3c(O)c4c(c(O)c32)C(=O)c2c(OC)cccc2C4=O)O[C@@H](C)[C@H]1O [AD 345] | – | pIC50 ([1]; 48 h, read-out: ID50): 6.21 |
| COc1cccc2c1C(=O)c1c(O)c3c(c(O)c1C2=O)C[C@@](O)(C(=O)CO)C[C@@H]3O[C@H]1C[C@H](NC(=O)NC(C)C)[C@H](O)[C@H](C)O1 [AD 350] | 6.14 | – |
| COc1cccc2c1C(=O)c1c(O)c3c(c(O)c1C2=O)C[C@@](O)(C(=O)CO)C[C@@H]3O[C@H]1C[C@H](NC(=O)Nc2ccc(F)cc2)[C@H](O)[C@H](C)O1 [AD 356] | 5.94 | – |
| COc1ccc(NC(=O)N[C@H]2C[C@H](O[C@H]3C[C@](O)(C(C)=O)Cc4c(O)c5c(c(O)c43)C(=O)c3c(OC)cccc3C5=O)O[C@@H](C)[C@H]2O)cc1 [AD 330] | < 6.00 | – |
| COc1cccc2c1C(=O)c1c(O)c3c(c(O)c1C2=O)C[C@@](O)(C(C)=O)C[C@@H]3O[C@H]1C[C@H](NC(=O)NCCCl)[C@H](O)[C@H](C)O1 [AD 307, 2-chloroethylureidodaunorubicin] | 6.52 | interference with topoisomerase I-mediated conversion of supercoiled DNA / intercalation [2]: reasonably strong intercalators; interstrand crosslink formation (calf thymus DNA): appeared to produce no such effect |
